Broadly, the EC50 is the concentration giving half of the maximal effect. A word on the CC50: it is the concentration that lowers cell viability or growth by half. Read a high CC50 as better tolerance by the cells.

Experimental findings from patent US11312727B1, “Macrocyclic flu endonuclease inhibitors” (Janssen BioPharma, Inc., priority 2018, dated 2022) are described below.

Data set [1] has as its system Influenza strain A549 A/WSN/33 (H1N1). Nature of the data set: microbe, parasite or virus in culture. The format is cell-based. The conditions noted are these: Influenza A virus, A549, 20 h, A549 cells, influenza A/WSN/33 (H1N1), 20 hours incubation; read-out: A549_A(H1N1) EC50.
The next data set in a line: in vitro. The conditions noted are these: human, CC50, uninfected A549 cells, CellTiter-Glo. (ATP-based viability assays read luminescence as a measure of living cells.)

Turning to `O=C1c2c(O)c(=O)ccn2N2CN1CCC/C=C/COc1ccccc1[C@H]2c1ccccc1` (single isomer, unassigned) [Compound 67A, (2*R,*Z)-15-hydroxy-2-phenyl-12,13,14,16-tetrahydro-11H-4-oxa-1(1,3)-pyrido[2,1-f][1,2,4]triazina-3(1,2)-benzenacyclodecaphan-6-ene-14,16-dione], the 50% effective concentration (EC50) in data set [1] was more than 1000 nM. In the data set “in vitro”, this compound yielded a 50% cytotoxic concentration (CC50) of more than 2000 nM.

For the compound `O=C1c2c(O)c(=O)ccn2N2CN1C1(/C=C/COc3ccccc3[C@@H]2c2ccccc2)CCC1` (single isomer, unassigned) [Compound 106B, (18′*S,E)-12′-hydroxy-18′-phenyl-6′H,18′H-spiro[cyclobutane-1,9′-[10,17]methanobenzo[b]pyrido[1,2-f][1]oxa[5,6,9]triazacyclotridecine]-11′,13′-dione], in data set [1], the EC50 is more than 100 nM. Moreover, in “in vitro”, the 50% cytotoxic concentration (CC50) is more than 200 nM.

Take `CC[C@@H]1/C=C/COc2c(Cl)cccc2[C@H](c2ccccc2)N2CN1C(=O)c1c(O)c(=O)ccn12` (single isomer, unassigned) [Compound 98AB, (9*R,18*S,E)-4-chloro-9-ethyl-12-hydroxy-18-phenyl-6,9-dihydro-18H-10,17-methanobenzo[b]pyrido[1,2-f][1]oxa[5,6,9]triazacyclotridecine-11,13-dione]: the EC50 in data set [1] was found to be 2.2 nM. Moreover, the CC50 in the data set “in vitro” was more than 200 nM.

As to `O=C1c2c(O)c(=O)ccn2N2CN1CCOC/C=C\c1cccc3c1[C@@H]2c1ccccc1CC3` (single isomer, unassigned) [Compound 83B, (13Z,23b*S)-6-hydroxy-9,10,12,18,19,23b-hexahydro-1,8-methanobenzo[4,5]cyclohepta[1,2,3-qr]pyrido[1,2-c][9,2,3,6]benzoxatriazacyclotetradecine-5,7-dione], in data set [1], the EC50 was determined as 6 nM. For the same compound, the CC50 in “in vitro” was more than 200 nM.

On to `O=C1c2c(O)c(=O)ccn2N2CN1CC/C=C/COc1cc(F)ccc1[C@@H]2c1ccccc1` (single isomer, unassigned) [Compound 77A, (7E,19*R)-3-fluoro-13-hydroxy-19-phenyl-9,10-dihydro-6H,19H-11,18-methanopyrido[2,1-i][1,7,10,11]benzoxatriazacyclotetradecine-12,14-dione], for which, in data set [1], the concentration for a half-maximal effect (EC50) was found to be 5280 nM. The same compound returned a CC50 in “in vitro” of 33200 nM.

`O=C1c2c(O)c(=O)ccn2N2CN1C1(/C=C/COc3c(ccc(F)c3F)[C@@H]2c2ccccc2)CCC1` [Compound 146B, (18'S,E)-3′,4′-difluoro-12′-hydroxy-18′-phenyl-6′H,18′H-spiro[cyclobutane-1,9′-[10,17]methanobenzo[b]pyrido[1,2-f][1]oxa[5,6,9]triazacyclotridecine]-11′,13′-dione]: the concentration for a half-maximal effect (EC50) in data set [1] is 340 nM. Moreover, the half-maximal cytotoxic concentration (CC50) in the data set “in vitro” is more than 10000 nM.

On to `CC(C)[C@@H]1/C=C/COc2c(ccc(F)c2F)[C@@H](c2ccccc2)N2CN1C(=O)c1c(O)c(=O)ccn12` (single isomer, unassigned) [Compound 128AA, (9*R,18*R,*E)-3,4-difluoro-12-hydroxy-9-isopropyl-18-phenyl-6,9-dihydro-18H-10,17-methanobenzo[b]pyrido[1,2-f][1]oxa[5,6,9]triazacyclotridecine-11,13-dione], for which, in data set [1], the EC50 is more than 100 nM. In “in vitro”, this compound gave a CC50 of more than 200 nM.

For `CC[C@H]1/C=C/COc2c(F)cccc2[C@H](c2ccccn2)N2CN1C(=O)c1c(O)c(=O)ccn12` (single isomer, unassigned) [Compound 154BB, (9*S,18*R,*E)-9-ethyl-4-fluoro-12-hydroxy-18-(pyridin-2-yl)-6,9-dihydro-18H-10,17-methanobenzo[b]pyrido[1,2-f][1]oxa[5,6,9]triazacyclotridecine-11,13-dione], in data set [1], the EC50 turned out to be 3.4 nM. Besides, the CC50 in “in vitro” was more than 100 nM.

`O=C1c2c(O)c(=O)ccn2N2CN1C/C=C\COc1c(cccc1C(F)(F)F)[C@@H]2c1ccccc1` (single isomer, unassigned) [Compound 130B, (18*S,Z)-12-hydroxy-18-phenyl-4-(trifluoromethyl)-6,9-dihydro-18H-10,17-methanobenzo[b]pyrido[1,2-f][1]oxa[5,6,9]triazacyclotridecine-11,13-dione]: in data set [1], the EC50 was more than 100 nM. In addition, in “in vitro”, the CC50 is more than 200 nM.

In the case of `O=C1c2c(O)c(=O)ccn2N2CN1[C@@H]1C[C@@H]1CCOc1cccc3c1[C@@H]2c1ccccc1SC3` (stereo in doubt) [Compound 166A, cis-(11a*RS,12a*RS,13S,20a*R)-15-hydroxy-6,11,11a,12,12a,20a-hexahydro-10H-7,8-(epiprop[1]en[1]yl[3]ylidene)-13,20-methanobenzo[6,7]thiepino[4,5-c]cyclopropa[j]pyrido[1,2-f][1]oxa[5,6,9]triazacyclotridecine-14,16-dione], in data set [1], the EC50 is more than 50 nM. Moreover, the CC50 in the data set “in vitro” was more than 100 nM.

On to `O=C1c2c(O)c(=O)ccn2N2CN1C/C=C\COc1cccnc1[C@H]2c1ccccc1` (single isomer, unassigned) [Compound 27A, (18*R,*Z)-12-hydroxy-18-phenyl-6,9-dihydro-18H-10,17-methanodipyrido[3,2-b:1′,2′-f][1]oxa[5,6,9]triazacyclotridecine-11,13-dione], for which, in data set [1], the EC50 was 94 nM. The compound further gave a CC50 in the data set “in vitro” of more than 2000 nM.

Regarding `CC(C)[C@@H]1/C=C/COc2c(ccc(F)c2F)[C@H](c2ccccc2)N2CN1C(=O)c1c(O)c(=O)ccn12` (single isomer, unassigned) [Compound 128BA, (9*R,18*S,*E)-3,4-difluoro-12-hydroxy-9-isopropyl-18-phenyl-6,9-dihydro-18H-10,17-methanobenzo[b]pyrido[1,2-f][1]oxa[5,6,9]triazacyclotridecine-11,13-dione], the concentration for a half-maximal effect (EC50) in data set [1] is more than 100 nM. Moreover, the cytotoxic concentration (CC50) in “in vitro” was more than 200 nM.

On to `O=C1c2c(O)c(=O)ccn2N2CN1C/C=C/CCc1cc(F)ccc1[C@H]2c1ccccn1` (single isomer, unassigned) [Compound 57B, (16*S,E)-13-fluoro-4-hydroxy-16-(pyridin-2-yl)-7,10,11,16-tetrahydro-6,17-methanobenzo[k]pyrido[1,2-b][1,2,5]triazacyclotridecine-3,5-dione], for which the EC50 in data set [1] was more than 1000 nM. The compound also gave a half-maximal cytotoxic concentration (CC50) in “in vitro” of more than 2000 nM.

Consider `CC[C@H]1/C=C/COc2c(Cl)cccc2[C@H](c2ccccc2)N2CN1C(=O)c1c(O)c(=O)ccn12` (single isomer, unassigned) [Compound 98AA, (9*S,18*S,E)-4-chloro-9-ethyl-12-hydroxy-18-phenyl-6,9-dihydro-18H-10,17-methanobenzo[b]pyrido[1,2-f][1]oxa[5,6,9]triazacyclotridecine-11,13-dione], for which, in data set [1], the 50% effective concentration (EC50) is more than 500 nM. In the data set “in vitro”, the CC50 is more than 1000 nM.

Turning to `O=C1c2c(O)c(=O)ccn2N2CN1C[C@@H]1C[C@H]1COc1cccc3c1[C@H]2c1ccccc1SC3` [Compound 87BB, (1aR,11bS,20aR)-17-hydroxy-1a,2,6,11b,20,20a-hexahydro-1H-5,4-(epiprop[1]en[1]yl[3]ylidene)-12,19-methanobenzo[6,7]thiepino[4,5-c]cyclopropa[k]pyrido[1,2-f][1]oxa[5,6,9]triazacyclotridecine-16,18-dione], the EC50 in data set [1] was found to be 4 nM. Besides, the cytotoxic concentration (CC50) in “in vitro” was more than 200 nM.

Consider `O=C1c2c(O)c(=O)ccn2N2CN1C[C@H]1C[C@@H]1COc1c(F)cccc1[C@H]2c1ccccc1` (single isomer, unassigned) [Compound 125AB, (1a*R,8*S,17a*R)-4-fluoro-14-hydroxy-8-phenyl-1a,2,17,17a-tetrahydro-1H,8H-9,16-methanobenzo[b]cyclopropa[k]pyrido[1,2-f][1]oxa[5,6,9]triazacyclotridecine-13,15-dione], for which, in data set [1], the EC50 was 24 nM. Besides, the CC50 in the data set “in vitro” was more than 200 nM.

Turning to `O=C1c2c(O)c(=O)ccn2N2CN1C1(/C=C\COc3cc(F)c(F)c4c3[C@@H]2c2ccccc2SC4)CC1` (single isomer, unassigned) [Compound 108C], in data set [1], the EC50 was more than 100 nM. The compound also showed a 50% cytotoxic concentration (CC50) in the data set “in vitro” of more than 200 nM.

As to `C[C@@H]1/C=C/COc2ccccc2[C@@H](c2ccccc2)N2CN1C(=O)c1c(O)c(=O)ccn12` (single isomer, unassigned) [Compound 29AA, (9*R, 18*R, E)-12-hydroxy-9-methyl-18-phenyl-6,9-dihydro-18H-10,17-methanobenzo[b]pyrido[1,2-f][1]oxa[5,6,9]triazacyclotridecine-11,13-dione], the EC50 in data set [1] is more than 3000 nM. The compound also came in with a cytotoxic concentration (CC50) in the data set “in vitro” of more than 2000 nM.

Take `O=C1c2c(O)c(=O)ccn2N2CN1CC[C@@H]1C[C@H]1COc1cccc3c1[C@H]2c1ccccc1SC3` (single isomer, unassigned) [Compound 131BA, (1*S,13*S,15*R)-7-hydroxy-17-oxa-24-thia-2,3,10-triazaheptacyclo[16.12.1.12,10.03,8.013,15.022,31.025,30]dotriaconta-4,18,20,22(31),25(30),26,28-heptaene-6,9-dione]: the half-maximal effective concentration (EC50) in data set [1] is more than 100 nM. Also, in “in vitro”, the CC50 is more than 200 nM.

Turning to `COC[C@H]1/C=C/COc2ccccc2[C@@H](c2ccccc2)N2CN1C(=O)c1c(O)c(=O)ccn12` (single isomer, unassigned) [Compound 150A, (9*R,18*R,*E)-12-hydroxy-9-(methoxymethyl)-18-phenyl-6,9-dihydro-18H-10,17-methanobenzo[b]pyrido[1,2-f][1]oxa[5,6,9]triazacyclotridecine-11,13-dione], the concentration for a half-maximal effect (EC50) in data set [1] turned out to be 9 nM. This compound showed a CC50 in the data set “in vitro” of more than 100 nM.

As to `CC[C@@H]1/C=C/COc2cccc3c2[C@H](c2ccccc2SC3)N2CN1C(=O)c1c(O)c(=O)ccn12` [Compound 92AB, (9R,17aR,E)-9-ethyl-12-hydroxy-2,6,9,17a-tetrahydro-3,4-(epiprop[1]en[1]yl[3]ylidene)-10,17-methanobenzo[6,7]thiepino[4,5-c]pyrido[1,2-f][1]oxa[5,6,9]triazacyclotridecine-11,13-dione], in data set [1], the EC50 was more than 500 nM. The compound further yielded a CC50 in the data set “in vitro” of more than 1000 nM.
